Measurements as given in paper PMC7170919, “The chloroalkaloid (−)-acutumine is biosynthesized via a Fe(II)- and 2-oxoglutarate-dependent halogenase in Menispermaceae plants” (Nature Communications, 2020).

Key:
Type in all cases: biochemical
SaDAH [1] = biological target: T1, SaDAH (Sinomenium acutum, UniProt A0A6M3RD65, G226D); assay: in vitro enzyme assay, LC-HRAM-MS; settings: 2OG 500 µM, NaCl 1 mM, Fe(II) 2 mM, ascorbate 5 mM, Tris pH 8.0, room temperature; hydroxylation
T1 construct: codon-optimized, N-terminal 8xHis-TEV tag (pHis8-4) cleaved, E. coli BL21(DE3)
T1 sequence (A0A6M3RD65 entry or part of it G226D): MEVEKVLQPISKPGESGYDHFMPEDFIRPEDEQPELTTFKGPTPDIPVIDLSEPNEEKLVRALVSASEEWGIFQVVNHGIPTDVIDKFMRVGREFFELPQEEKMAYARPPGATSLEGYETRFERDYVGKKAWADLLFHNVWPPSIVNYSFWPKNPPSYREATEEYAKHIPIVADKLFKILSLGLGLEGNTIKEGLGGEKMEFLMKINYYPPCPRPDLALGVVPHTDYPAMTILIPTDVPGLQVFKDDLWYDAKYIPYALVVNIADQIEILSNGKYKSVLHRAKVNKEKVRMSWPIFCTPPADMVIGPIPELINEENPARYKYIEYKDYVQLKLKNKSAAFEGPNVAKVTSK

SaDAH [2] = biological target: T2, SaDAH (Sinomenium acutum, UniProt A0A6M3RD65); assay: LC-MS quantification of (−)-acutumine formed; settings: 2OG 500 µM, NaCl 1 mM, ascorbate 5 mM, (NH4)2Fe(SO4)2 2 mM; 30 nM enzyme, 10 min; chlorination
T2 construct: codon-optimized, N-terminal 8xHis-TEV tag (pHis8-4) cleaved, E. coli BL21(DE3)
T2 sequence (A0A6M3RD65 entry or part of it): as the sequence (A0A6M3RD65 entry or part of it G226D) above, with D226G counted along it

McDAH = biological target: T3, McDAH (Menispermum canadense, UniProt A0A6M3RHU8); assay: in vitro enzyme assay, LC-MS; settings: 2OG-dependent chlorination, 1 mM NaCl
T3 sequence (A0A6M3RHU8 1-351): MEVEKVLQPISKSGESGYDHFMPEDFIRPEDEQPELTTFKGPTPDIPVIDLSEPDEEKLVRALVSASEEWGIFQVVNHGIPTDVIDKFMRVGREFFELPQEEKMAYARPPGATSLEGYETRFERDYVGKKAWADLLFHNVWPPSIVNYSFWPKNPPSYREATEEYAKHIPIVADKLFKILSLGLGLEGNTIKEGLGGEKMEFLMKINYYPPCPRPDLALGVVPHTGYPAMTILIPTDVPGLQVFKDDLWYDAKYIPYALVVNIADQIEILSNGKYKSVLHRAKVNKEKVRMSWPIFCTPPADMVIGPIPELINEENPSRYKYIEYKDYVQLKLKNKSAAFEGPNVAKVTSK

COC1=CC(=O)C2(CCC34C(OC)=C(OC)C(=O)CC23CCN4C)C1O (single isomer, unassigned; (-)) [compound 5, (−)-dechloroacutumine]
in vitro enzyme assay, LC-HRAM-MS (SaDAH [1]): exhibits exclusive (−)-dechloroacutumine hydroxylase activity to give the hydroxylation product 11-hydroxy-dechloroacutumine | Km (SaDAH [2]): 18.4 ± 7.13 µM | in vitro enzyme assay, LC-MS (McDAH): Recombinant McDAH exhibits identical activity to SaDAH
